Values after ≈ are worked out from the molar mass of the structure shown.
What was measured:
Format in all cases: functional
Klebsiella pneumoniae = assay: In vitro antibacterial activity against Klebsiella X26
[1] = test system: Staphylococcus epidermidis; assay: In vitro antibacterial activity against Staphylococcus epidermidis 222
Staphylococcus aureus = assay: In vitro antibacterial activity against Staphylococcus aureus X1.1
Streptococcus pneumoniae = assay: In vitro antibacterial activity against Streptococcus pneumoniae PARK
Escherichia coli = assay: In vitro antibacterial activity against Escherichia coli EC14
Pseudomonas aeruginosa = assay: In vitro antibacterial activity against Pseudomonas PS72
Haemophilus influenzae = assay: In vitro antibacterial activity against Haemophilus influenza C.L
Klebsiella aerogenes = assay: In vitro antibacterial activity against Enterobacter aerogenes C32

MIC (Klebsiella pneumoniae) [µg/mL] | MIC [1] [µg/mL] | MIC (Staphylococcus aureus) [µg/mL] | MIC (Streptococcus pneumoniae) [µg/mL] | MIC (Escherichia coli) [µg/mL] | MIC (Pseudomonas aeruginosa) [µg/mL] | MIC (Haemophilus influenzae) [µg/mL] | MIC (Klebsiella aerogenes) [µg/mL] | Compound
0.125 (≈ 0.24 µM) | 32 (≈ 61.4 µM) | 32 (≈ 61.4 µM) | 0.25 (≈ 0.48 µM) | 1 (≈ 1.92 µM) | > 128 | 1 (≈ 1.92 µM) | 2 (≈ 3.84 µM) | CS(=O)(=O)C1=C(C(=O)O)N2C(=O)[C@@H](NC(=O)/C(=N/OCCCCCl)c3csc(N)n3)CN2C1
0.06 (≈ 0.12 µM) | 32 (≈ 63.9 µM) | 16 (≈ 32 µM) | 0.125 (≈ 0.25 µM) | 0.5 (≈ 0.999 µM) | > 128 | 0.5 (≈ 0.999 µM) | 1 (≈ 2 µM) | CCCO/N=C(/C(=O)N[C@H]1CN2CC(S(=O)(=O)CCC)=C(C(=O)O)N2C1=O)c1csc(N)n1
0.03 (≈ 0.063 µM) | 16 (≈ 33.6 µM) | 16 (≈ 33.6 µM) | 0.06 (≈ 0.126 µM) | 0.015 (≈ 0.0315 µM) | 128 (≈ 269 µM) | 0.25 (≈ 0.525 µM) | 0.06 (≈ 0.126 µM) | CS(=O)(=O)C1=C(C(=O)O)N2C(=O)[C@@H](NC(=O)/C(=N/OCCF)c3csc(N)n3)CN2C1
0.03 (≈ 0.0709 µM) | 16 (≈ 37.8 µM) | 32 (≈ 75.6 µM) | 0.25 (≈ 0.59 µM) | 0.03 (≈ 0.0709 µM) | 128 (≈ 302 µM) | 0.25 (≈ 0.59 µM) | 0.125 (≈ 0.295 µM) | N#CC1=C(C(=O)O)N2C(=O)[C@@H](NC(=O)/C(=N/OCCF)c3csc(N)n3)CN2C1
0.06 (≈ 0.124 µM) | 4 (≈ 8.26 µM) | 8 (≈ 16.5 µM) | 0.125 (≈ 0.258 µM) | 0.125 (≈ 0.258 µM) | > 128 | 0.125 (≈ 0.258 µM) | 0.5 (≈ 1.03 µM) | N#CC1=C(C(=O)O)N2C(=O)[C@@H](NC(=O)/C(=N/OCCBr)c3csc(N)n3)CN2C1
0.25 (≈ 0.539 µM) | > 128 | > 128 | 16 (≈ 34.5 µM) | 0.03 (≈ 0.0647 µM) | 64 (≈ 138 µM) | 0.06 (≈ 0.129 µM) | 0.125 (≈ 0.27 µM) | CC(C)(O/N=C(/C(=O)N[C@H]1CN2CC(C#N)=C(C(=O)O)N2C1=O)c1csc(N)n1)C(=O)O
0.03 (≈ 0.0604 µM) | 32 (≈ 64.4 µM) | 8 (≈ 16.1 µM) | 0.125 (≈ 0.252 µM) | 0.125 (≈ 0.252 µM) | > 128 | 0.25 (≈ 0.503 µM) | 0.5 (≈ 1.01 µM) | C=CCO/N=C(/C(=O)N[C@H]1CN2CC(S(=O)(=O)CC=C)=C(C(=O)O)N2C1=O)c1csc(N)n1
0.03 (≈ 0.0612 µM) | 16 (≈ 32.6 µM) | 8 (≈ 16.3 µM) | 0.06 (≈ 0.122 µM) | 0.03 (≈ 0.0612 µM) | 128 (≈ 261 µM) | 0.125 (≈ 0.255 µM) | 0.125 (≈ 0.255 µM) | CS(=O)(=O)C1=C(C(=O)O)N2C(=O)[C@@H](NC(=O)/C(=N/OCCCF)c3csc(N)n3)CN2C1
32 (≈ 96.3 µM) | 32 (≈ 96.3 µM) | 8 (≈ 24.1 µM) | 2 (≈ 6.02 µM) | 16 (≈ 48.1 µM) | > 128 | 16 (≈ 48.1 µM) | 64 (≈ 193 µM) | N#CC1=C(C(=O)O)N2C(=O)[C@@H](NC(=O)Cc3cccs3)CN2C1
0.03 (≈ 0.0561 µM) | 16 (≈ 29.9 µM) | 8 (≈ 15 µM) | 0.125 (≈ 0.234 µM) | 0.5 (≈ 0.935 µM) | > 128 | 0.5 (≈ 0.935 µM) | 1 (≈ 1.87 µM) | CCCCS(=O)(=O)C1=C(C(=O)O)N2C(=O)[C@@H](NC(=O)/C(=N/OCCCl)c3csc(N)n3)CN2C1
> 128 | > 128 | > 128 | > 128 | > 128 | > 128 | > 128 | > 128 | N#CC1=C(C(=O)O)N2C(=O)[C@@H](NC(=O)Cn3cnnn3)CN2C1
0.03 (≈ 0.0531 µM) | 8 (≈ 14.1 µM) | 8 (≈ 14.1 µM) | 0.06 (≈ 0.106 µM) | 0.25 (≈ 0.442 µM) | > 128 | 0.125 (≈ 0.221 µM) | 0.5 (≈ 0.884 µM) | CCCS(=O)(=O)C1=C(C(=O)O)N2C(=O)[C@@H](NC(=O)/C(=N/OCCBr)c3csc(N)n3)CN2C1
0.03 (≈ 0.0558 µM) | 8 (≈ 14.9 µM) | 8 (≈ 14.9 µM) | 0.125 (≈ 0.233 µM) | 0.125 (≈ 0.233 µM) | > 128 | 0.125 (≈ 0.233 µM) | 0.125 (≈ 0.233 µM) | CS(=O)(=O)C1=C(C(=O)O)N2C(=O)[C@@H](NC(=O)/C(=N/OCCBr)c3csc(N)n3)CN2C1
32 (≈ 98.1 µM) | 32 (≈ 98.1 µM) | 16 (≈ 49 µM) | 8 (≈ 24.5 µM) | 32 (≈ 98.1 µM) | > 128 | 32 (≈ 98.1 µM) | 128 (≈ 392 µM) | N#CC1=C(C(=O)O)N2C(=O)[C@@H](NC(=O)Cc3ccccc3)CN2C1
16 (≈ 44.6 µM) | 8 (≈ 22.3 µM) | 4 (≈ 11.2 µM) | 0.5 (≈ 1.4 µM) | 32 (≈ 89.3 µM) | > 128 | 32 (≈ 89.3 µM) | 128 (≈ 357 µM) | N#CC1=C(C(=O)O)N2C(=O)[C@@H](NC(=O)CSc3ccccc3)CN2C1
0.06 (≈ 0.12 µM) | 32 (≈ 64.2 µM) | 16 (≈ 32.1 µM) | 0.06 (≈ 0.12 µM) | 0.5 (≈ 1 µM) | > 128 | 0.25 (≈ 0.501 µM) | 0.5 (≈ 1 µM) | C=CCO/N=C(/C(=O)N[C@H]1CN2CC(S(=O)(=O)CCC)=C(C(=O)O)N2C1=O)c1csc(N)n1
0.03 (≈ 0.0527 µM) | 16 (≈ 28.1 µM) | 8 (≈ 14.1 µM) | 0.06 (≈ 0.105 µM) | 2 (≈ 3.51 µM) | > 128 | 0.5 (≈ 0.879 µM) | 4 (≈ 7.03 µM) | Nc1nc(/C(=N\OCCCl)C(=O)N[C@H]2CN3CC(S(=O)(=O)Cc4ccccc4)=C(C(=O)O)N3C2=O)cs1

Source: ChEMBL document CHEMBL1126865, “Structure-activity relationship within a series of pyrazolidinone antibacterial agents. 2. Effect of side-chain modification on in vitro activity and pharmacokinetic parameters” (J Med Chem, 1993)
